Experimental data: ChEMBL document CHEMBL1201862, “PubChem BioAssay data set” (2004)
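A five-concentration, 48-hour dose response in 96-well plates underlies each endpoint, interpolated linearly between surrounding concentrations. GI50: concentration for 50% inhibition of growth.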 Activity calls are given as the source filed them. Rule as the data show it: active = GI50 up to about 1.1 µM and inactive = higher.

Columns and labels:
Assay in all cases: NCI-60 cell line screen, 48 h
DLD-1 = test system: DLD-1
DMS-114 = test system: DMS-114
DMS-273 = test system: DMS-273
HOP-18 = test system: HOP-18
KM-20L2 = test system: KM-20L2
M19-MEL = test system: M19-MEL
RXF 631 = test system: RXF 631
SNB-78 = test system: SNB-78
XF498 = test system: XF498

Measured: GI50

O=C(OCc1ccccc1)n1cccc1
inactive: DLD-1 > 100 µM | DMS-114 55.2 µM | DMS-273 > 100 µM | HOP-18 > 100 µM | KM-20L2 > 100 µM | M19-MEL > 100 µM | RXF 631 > 100 µM | SNB-78 > 100 µM | XF498 78.2 µM

CCc1c(C#N)c(=O)[nH]c(=O)n1CCN1CCN(C(=O)NCCCCCCNC(=O)N2CCN(CCn3c(CC)c(C#N)c(=O)[nH]c3=O)CC2)CC1
inactive: DLD-1 > 100 µM | DMS-114 > 100 µM | DMS-273 > 100 µM | HOP-18 > 100 µM | KM-20L2 > 100 µM | M19-MEL > 100 µM | RXF 631 > 100 µM | SNB-78 > 100 µM | XF498 > 100 µM

Cc1c(C(=O)C/C(=N/NC(=O)C[N+](C)(C)C)C(=O)Nc2ccc(Cl)cc2)[n+]([O-])c2ccccc2[n+]1[O-]
inactive: DLD-1 > 100 µM | DMS-114 > 100 µM | DMS-273 > 100 µM | HOP-18 > 100 µM | KM-20L2 > 100 µM | M19-MEL > 100 µM | RXF 631 > 100 µM | SNB-78 > 100 µM | XF498 > 100 µM

COc1cc(/C=C2\NC(=O)C3Cc4c(OC)c(C)c(OC)c(OC)c4C2N3C)c(OC)c(C)c1OC (stereo unspecified)
inactive: DLD-1 > 100 µM | DMS-114 > 100 µM | DMS-273 > 100 µM | HOP-18 > 100 µM | KM-20L2 > 100 µM | M19-MEL > 100 µM | RXF 631 > 100 µM | SNB-78 > 100 µM | XF498 > 100 µM
